Measurements: the kinase profiling compilation of Christmann-Franck et al. (2016)

Assays:
Assay in all cases: KINOMEscan competition binding
[1] = target: MKNK1 (human) (UniProt Q9BUB5)
[2] = target: SBK1 (human) (UniProt Q52WX2)
[3] = target: IRAK4 (human) (UniProt Q9NWZ3)
[4] = target: RPS6KA5 KD1 (human) (UniProt O75582)
[5] = target: MAST1 (human) (UniProt Q9Y2H9)
[6] = target: INSRR (human) (UniProt P14616)
[7] = test system: RET (human), P07949 [V804M]
[8] = target: ACVR2B (human) (UniProt Q13705)
[9] = target: PRPF4B (human) (UniProt Q13523)
[10] = target: MAPK12 (human) (UniProt P53778)
MAPK12 (human), sequence (P53778 whole entry, looked up): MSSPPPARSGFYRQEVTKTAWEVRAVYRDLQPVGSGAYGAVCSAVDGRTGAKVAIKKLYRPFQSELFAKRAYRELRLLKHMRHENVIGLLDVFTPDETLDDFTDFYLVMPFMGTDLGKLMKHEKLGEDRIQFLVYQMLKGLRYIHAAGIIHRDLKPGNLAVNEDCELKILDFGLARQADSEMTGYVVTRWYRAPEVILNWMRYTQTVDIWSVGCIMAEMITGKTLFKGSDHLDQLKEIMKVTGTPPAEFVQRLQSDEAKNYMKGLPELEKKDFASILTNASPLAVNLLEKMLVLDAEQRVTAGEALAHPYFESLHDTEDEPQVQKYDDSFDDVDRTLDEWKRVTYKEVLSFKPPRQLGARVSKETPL

[11] = target: PRKG2 (human) (UniProt Q13237)
[12] = target: LATS2 (human) (UniProt Q9NRM7)
[13] = target: CDKL5 (human) (UniProt O76039)
[14] = test system: FLT3 (human), P36888 [D835H]
[15] = target: PTK2B (human) (UniProt Q14289)
[16] = target: STK32B (human) (UniProt Q9NY57)
[17] = test system: FGFR3 (human), P22607 [G697C]
[18] = target: TGFBR2 (human) (UniProt P37173)
TGFBR2 (human), sequence (P37173 whole entry, looked up): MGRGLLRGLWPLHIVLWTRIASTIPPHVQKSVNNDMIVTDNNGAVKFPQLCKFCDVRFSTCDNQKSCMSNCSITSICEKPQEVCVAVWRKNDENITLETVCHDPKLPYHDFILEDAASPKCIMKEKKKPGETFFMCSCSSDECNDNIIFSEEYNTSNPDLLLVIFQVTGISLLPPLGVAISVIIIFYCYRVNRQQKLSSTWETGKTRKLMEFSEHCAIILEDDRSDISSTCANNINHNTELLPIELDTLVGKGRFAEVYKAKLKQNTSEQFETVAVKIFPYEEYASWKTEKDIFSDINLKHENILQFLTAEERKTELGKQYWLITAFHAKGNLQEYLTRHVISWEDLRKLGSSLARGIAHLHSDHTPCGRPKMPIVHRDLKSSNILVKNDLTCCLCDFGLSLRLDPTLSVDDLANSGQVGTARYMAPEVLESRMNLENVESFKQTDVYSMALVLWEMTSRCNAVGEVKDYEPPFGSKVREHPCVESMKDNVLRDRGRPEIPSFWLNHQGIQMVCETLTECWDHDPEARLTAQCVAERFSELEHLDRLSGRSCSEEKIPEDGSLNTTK

[19] = target: FLT1 (human) (UniProt P17948)
FLT1 (human), sequence (P17948 whole entry, looked up): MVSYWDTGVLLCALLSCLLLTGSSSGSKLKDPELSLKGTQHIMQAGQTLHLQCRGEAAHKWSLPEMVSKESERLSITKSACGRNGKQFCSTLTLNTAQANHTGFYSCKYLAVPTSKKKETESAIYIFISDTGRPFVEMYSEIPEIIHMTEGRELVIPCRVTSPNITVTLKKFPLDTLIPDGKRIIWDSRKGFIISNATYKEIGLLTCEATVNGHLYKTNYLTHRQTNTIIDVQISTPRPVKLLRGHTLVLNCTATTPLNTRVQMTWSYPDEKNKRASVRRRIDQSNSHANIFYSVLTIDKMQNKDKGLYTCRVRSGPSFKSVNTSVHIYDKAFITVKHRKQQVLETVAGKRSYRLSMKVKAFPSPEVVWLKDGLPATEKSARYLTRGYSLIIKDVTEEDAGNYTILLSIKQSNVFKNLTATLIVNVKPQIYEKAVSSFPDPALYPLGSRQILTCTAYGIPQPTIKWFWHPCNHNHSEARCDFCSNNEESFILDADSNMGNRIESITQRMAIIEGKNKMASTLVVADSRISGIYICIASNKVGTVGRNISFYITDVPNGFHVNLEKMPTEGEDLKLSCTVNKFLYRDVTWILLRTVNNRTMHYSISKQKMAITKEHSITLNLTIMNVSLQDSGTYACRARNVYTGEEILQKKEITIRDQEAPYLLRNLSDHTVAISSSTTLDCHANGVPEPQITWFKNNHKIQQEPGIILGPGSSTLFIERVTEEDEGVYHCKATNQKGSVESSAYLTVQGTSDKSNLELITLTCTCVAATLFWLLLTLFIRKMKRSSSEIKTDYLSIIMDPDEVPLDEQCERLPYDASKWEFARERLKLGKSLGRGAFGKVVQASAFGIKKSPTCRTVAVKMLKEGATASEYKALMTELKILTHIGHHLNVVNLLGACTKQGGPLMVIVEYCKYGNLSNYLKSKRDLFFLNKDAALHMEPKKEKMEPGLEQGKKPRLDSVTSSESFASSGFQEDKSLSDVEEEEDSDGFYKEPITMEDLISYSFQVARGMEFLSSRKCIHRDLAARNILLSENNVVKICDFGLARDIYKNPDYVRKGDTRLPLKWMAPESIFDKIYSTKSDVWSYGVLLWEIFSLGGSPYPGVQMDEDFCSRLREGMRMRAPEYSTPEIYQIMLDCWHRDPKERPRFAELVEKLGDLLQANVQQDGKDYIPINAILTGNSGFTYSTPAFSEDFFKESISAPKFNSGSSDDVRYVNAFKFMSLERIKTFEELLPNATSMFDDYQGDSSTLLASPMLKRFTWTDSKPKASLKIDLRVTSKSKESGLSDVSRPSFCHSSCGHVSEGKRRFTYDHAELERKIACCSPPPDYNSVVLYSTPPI

[20] = target: TRPM6 (human) (UniProt Q9BX84)
[21] = test system: EGFR (human), P00533 [P753S; 747-752 del]
[22] = target: FGFR2 (human) (UniProt P21802)
[23] = target: PRKCQ (human) (UniProt Q04759)
[24] = target: CDK8 (human) (UniProt P49336)
[25] = target: RIPK1 (human) (UniProt Q13546)
[26] = target: MAP2K2 (human) (UniProt P36507)
[27] = target: BMPR2 (human) (UniProt Q13873)
BMPR2 (human), sequence (Q13873 whole entry, looked up): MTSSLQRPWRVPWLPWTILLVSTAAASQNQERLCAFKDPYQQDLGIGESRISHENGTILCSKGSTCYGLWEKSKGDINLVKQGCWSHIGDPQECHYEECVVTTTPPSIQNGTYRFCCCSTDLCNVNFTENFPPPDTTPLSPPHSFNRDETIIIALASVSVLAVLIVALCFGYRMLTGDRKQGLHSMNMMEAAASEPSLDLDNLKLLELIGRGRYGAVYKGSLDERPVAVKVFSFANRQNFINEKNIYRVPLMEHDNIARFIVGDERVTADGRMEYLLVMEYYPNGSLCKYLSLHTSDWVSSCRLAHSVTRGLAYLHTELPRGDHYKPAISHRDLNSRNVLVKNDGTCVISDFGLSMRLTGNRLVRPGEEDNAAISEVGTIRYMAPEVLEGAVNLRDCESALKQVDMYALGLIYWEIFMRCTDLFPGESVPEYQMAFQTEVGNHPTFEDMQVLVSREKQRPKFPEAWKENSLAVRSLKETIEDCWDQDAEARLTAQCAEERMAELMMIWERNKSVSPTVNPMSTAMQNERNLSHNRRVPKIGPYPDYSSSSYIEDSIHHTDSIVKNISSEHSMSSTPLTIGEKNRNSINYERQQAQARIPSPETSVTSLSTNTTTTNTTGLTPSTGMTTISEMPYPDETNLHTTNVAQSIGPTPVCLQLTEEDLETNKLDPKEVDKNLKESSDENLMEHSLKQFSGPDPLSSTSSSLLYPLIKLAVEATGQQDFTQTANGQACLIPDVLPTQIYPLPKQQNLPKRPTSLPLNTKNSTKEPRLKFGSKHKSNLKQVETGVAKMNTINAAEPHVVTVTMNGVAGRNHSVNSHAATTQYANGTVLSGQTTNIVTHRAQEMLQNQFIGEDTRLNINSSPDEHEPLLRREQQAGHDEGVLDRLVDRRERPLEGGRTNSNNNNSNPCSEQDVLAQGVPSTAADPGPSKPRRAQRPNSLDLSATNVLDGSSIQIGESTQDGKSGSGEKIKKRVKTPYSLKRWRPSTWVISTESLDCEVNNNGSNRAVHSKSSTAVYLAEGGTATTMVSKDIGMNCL

[28] = target: CHEK1 (human) (UniProt O14757)
[29] = target: FER (human) (UniProt P16591)
[30] = target: CASK (human) (UniProt O14936)
[31] = target: STK32A (human) (UniProt Q8WU08)
[32] = target: PI4KB (human) (UniProt Q9UBF8)
[33] = target: TXK (human) (UniProt P42681)
[34] = target: AURKC (human) (UniProt Q9UQB9)
[35] = target: TESK1 (human) (UniProt Q15569)
[36] = target: MYLK2 (human) (UniProt Q9H1R3)
[37] = target: YES1 (human) (UniProt P07947)
[38] = target: STK25 (human) (UniProt O00506)
STK25 (human), sequence (O00506 whole entry, looked up): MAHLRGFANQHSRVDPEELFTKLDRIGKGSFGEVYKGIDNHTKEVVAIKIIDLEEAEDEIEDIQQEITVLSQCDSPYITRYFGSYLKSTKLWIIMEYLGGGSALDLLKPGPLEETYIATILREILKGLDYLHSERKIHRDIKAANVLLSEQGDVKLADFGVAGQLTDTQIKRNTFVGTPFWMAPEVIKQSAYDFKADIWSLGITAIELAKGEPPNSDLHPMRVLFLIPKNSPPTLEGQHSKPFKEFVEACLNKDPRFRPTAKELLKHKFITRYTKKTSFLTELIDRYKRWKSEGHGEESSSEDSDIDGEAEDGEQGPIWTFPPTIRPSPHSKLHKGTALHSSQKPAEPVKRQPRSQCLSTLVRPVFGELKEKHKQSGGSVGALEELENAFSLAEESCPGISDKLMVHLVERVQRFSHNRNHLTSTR

[39] = target: AKT3 (human) (UniProt Q9Y243)
[40] = target: NEK4 (human) (UniProt P51957)
NEK4 (human), sequence (P51957 whole entry, looked up): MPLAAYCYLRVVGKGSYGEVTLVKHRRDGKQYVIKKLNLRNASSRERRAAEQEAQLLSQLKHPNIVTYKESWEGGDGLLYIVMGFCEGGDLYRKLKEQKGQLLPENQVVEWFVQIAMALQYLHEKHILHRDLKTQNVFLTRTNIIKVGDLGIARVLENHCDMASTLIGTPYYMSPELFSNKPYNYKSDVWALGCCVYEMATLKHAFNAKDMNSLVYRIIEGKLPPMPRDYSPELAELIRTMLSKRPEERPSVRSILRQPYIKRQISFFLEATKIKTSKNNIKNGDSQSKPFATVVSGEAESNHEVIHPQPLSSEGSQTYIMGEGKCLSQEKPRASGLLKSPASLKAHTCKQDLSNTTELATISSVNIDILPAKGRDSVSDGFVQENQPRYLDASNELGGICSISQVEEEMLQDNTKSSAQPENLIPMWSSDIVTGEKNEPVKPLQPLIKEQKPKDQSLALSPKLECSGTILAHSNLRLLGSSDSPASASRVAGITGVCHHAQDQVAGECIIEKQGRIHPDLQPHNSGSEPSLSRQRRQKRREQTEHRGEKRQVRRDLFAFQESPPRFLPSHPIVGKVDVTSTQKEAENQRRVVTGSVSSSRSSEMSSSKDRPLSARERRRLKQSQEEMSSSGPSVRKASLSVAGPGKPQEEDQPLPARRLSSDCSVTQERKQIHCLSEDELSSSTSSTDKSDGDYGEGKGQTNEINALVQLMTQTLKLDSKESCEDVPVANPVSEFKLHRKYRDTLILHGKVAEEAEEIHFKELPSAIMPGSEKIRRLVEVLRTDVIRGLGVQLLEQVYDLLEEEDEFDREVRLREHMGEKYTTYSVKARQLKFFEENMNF

[41] = target: PDGFRA (human) (UniProt P16234)
[42] = target: DAPK1 (human) (UniProt P53355)
[43] = target: GRK4 (human) (UniProt P32298)

IRAK4 (human), sequence (Q9NWZ3 whole entry, looked up): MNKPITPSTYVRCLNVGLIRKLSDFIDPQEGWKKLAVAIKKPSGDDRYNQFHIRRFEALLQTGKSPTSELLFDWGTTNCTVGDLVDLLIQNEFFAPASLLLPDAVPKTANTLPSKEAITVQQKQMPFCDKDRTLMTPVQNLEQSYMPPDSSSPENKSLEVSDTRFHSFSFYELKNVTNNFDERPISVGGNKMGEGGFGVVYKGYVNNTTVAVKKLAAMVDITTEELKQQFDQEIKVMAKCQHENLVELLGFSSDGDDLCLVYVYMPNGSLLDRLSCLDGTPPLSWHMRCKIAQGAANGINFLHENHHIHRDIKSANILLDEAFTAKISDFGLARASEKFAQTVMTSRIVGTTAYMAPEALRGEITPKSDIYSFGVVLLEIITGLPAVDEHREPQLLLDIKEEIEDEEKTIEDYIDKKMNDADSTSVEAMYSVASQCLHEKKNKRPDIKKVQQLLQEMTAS

Cc1ccc(NC(=O)c2ccc(NC(=O)/C=C/CN(C)C)cc2)cc1Nc1nccc(-c2cccnc2)n1 showed a kinase still bound, per cent of control ([1]; compound 10.0 µM) of 88%, a kinase still bound, per cent of control ([2]; compound 10.0 µM) of 77% and a kinase still bound, per cent of control ([3]; compound 10.0 µM) of 81%. It also gave a kinase still bound, per cent of control ([4]; compound 10.0 µM) of 90%, a kinase still bound, per cent of control ([5]; compound 10.0 µM) of 89% and a kinase still bound, per cent of control ([6]; compound 10.0 µM) of 100%. The kinase still bound, per cent of control ([7]; compound 10.0 µM) was 100%, the kinase still bound, per cent of control ([8]; compound 10.0 µM) was 84% and the kinase still bound, per cent of control ([9]; compound 10.0 µM) was 100%. For the same molecule, the kinase still bound, per cent of control ([10]; compound 10.0 µM) was 94%, the kinase still bound, per cent of control ([11]; compound 10.0 µM) was 74% and the kinase still bound, per cent of control ([12]; compound 10.0 µM) was 100%. For the same molecule, the kinase still bound, per cent of control ([13]; compound 10.0 µM) was 100%, the kinase still bound, per cent of control ([14]; compound 10.0 µM) was 66% and the kinase still bound, per cent of control ([15]; compound 10.0 µM) was 100%. The kinase still bound, per cent of control ([16]; compound 10.0 µM) was 100%, the kinase still bound, per cent of control ([17]; compound 10.0 µM) was 97% and the kinase still bound, per cent of control ([18]; compound 10.0 µM) was 100%. For the same molecule, the kinase still bound, per cent of control ([19]; compound 10.0 µM) was 91%, the kinase still bound, per cent of control ([20]; compound 10.0 µM) was 52% and the kinase still bound, per cent of control ([21]; compound 10.0 µM) was 56%. The kinase still bound, per cent of control ([22]; compound 10.0 µM) was 100%, the kinase still bound, per cent of control ([23]; compound 10.0 µM) was 100% and the kinase still bound, per cent of control ([24]; compound 10.0 µM) was 93%. It also gave a kinase still bound, per cent of control ([25]; compound 10.0 µM) of 56%, a kinase still bound, per cent of control ([26]; compound 10.0 µM) of 74% and a kinase still bound, per cent of control ([27]; compound 10.0 µM) of 86%. The kinase still bound, per cent of control ([28]; compound 10.0 µM) was 100%, the kinase still bound, per cent of control ([29]; compound 10.0 µM) was 90% and the kinase still bound, per cent of control ([30]; compound 10.0 µM) was 79%. It also gave a kinase still bound, per cent of control ([31]; compound 10.0 µM) of 50%, a kinase still bound, per cent of control ([32]; compound 10.0 µM) of 40% and a kinase still bound, per cent of control ([33]; compound 10.0 µM) of 94%. The kinase still bound, per cent of control ([34]; compound 10.0 µM) was 67%, the kinase still bound, per cent of control ([35]; compound 10.0 µM) was 100% and the kinase still bound, per cent of control ([36]; compound 10.0 µM) was 68%. For the same molecule, the kinase still bound, per cent of control ([37]; compound 10.0 µM) was 100%, the kinase still bound, per cent of control ([38]; compound 10.0 µM) was 100% and the kinase still bound, per cent of control ([39]; compound 10.0 µM) was 100%. For the same molecule, the kinase still bound, per cent of control ([40]; compound 10.0 µM) was 100%, the kinase still bound, per cent of control ([41]; compound 10.0 µM) was 0.4% and the kinase still bound, per cent of control ([42]; compound 10.0 µM) was 72%. It also gave a kinase still bound, per cent of control ([43]; compound 10.0 µM) of 88%.

With Cc1cc(NC(=O)c2cccc(NC(=O)/C=C/CN(C)C)c2)ccc1Nc1nccc(-c2cccnc2)n1 the kinase still bound, per cent of control ([1]; compound 1.0 µM) was 81%, the kinase still bound, per cent of control ([2]; compound 1.0 µM) was 96% and the kinase still bound, per cent of control ([3]; compound 1.0 µM) was 93%. It also gave a kinase still bound, per cent of control ([4]; compound 1.0 µM) of 100%, a kinase still bound, per cent of control ([5]; compound 1.0 µM) of 97% and a kinase still bound, per cent of control ([6]; compound 1.0 µM) of 100%. For the same molecule, the kinase still bound, per cent of control ([7]; compound 1.0 µM) was 100%, the kinase still bound, per cent of control ([8]; compound 1.0 µM) was 100% and the kinase still bound, per cent of control ([9]; compound 1.0 µM) was 100%. The kinase still bound, per cent of control ([10]; compound 1.0 µM) was 100%, the kinase still bound, per cent of control ([11]; compound 1.0 µM) was 97% and the kinase still bound, per cent of control ([12]; compound 1.0 µM) was 74%. It also gave a kinase still bound, per cent of control ([13]; compound 1.0 µM) of 100%, a kinase still bound, per cent of control ([14]; compound 1.0 µM) of 82% and a kinase still bound, per cent of control ([15]; compound 1.0 µM) of 87%. It also gave a kinase still bound, per cent of control ([16]; compound 1.0 µM) of 90%, a kinase still bound, per cent of control ([17]; compound 1.0 µM) of 100% and a kinase still bound, per cent of control ([18]; compound 1.0 µM) of 64%. It also gave a kinase still bound, per cent of control ([19]; compound 1.0 µM) of 100%, a kinase still bound, per cent of control ([20]; compound 1.0 µM) of 98% and a kinase still bound, per cent of control ([21]; compound 1.0 µM) of 81%. It also gave a kinase still bound, per cent of control ([22]; compound 1.0 µM) of 79%, a kinase still bound, per cent of control ([23]; compound 1.0 µM) of 100% and a kinase still bound, per cent of control ([24]; compound 1.0 µM) of 51%. The kinase still bound, per cent of control ([25]; compound 1.0 µM) was 51%, the kinase still bound, per cent of control ([26]; compound 1.0 µM) was 91% and the kinase still bound, per cent of control ([27]; compound 1.0 µM) was 77%. It also gave a kinase still bound, per cent of control ([28]; compound 1.0 µM) of 98%, a kinase still bound, per cent of control ([29]; compound 1.0 µM) of 100% and a kinase still bound, per cent of control ([30]; compound 1.0 µM) of 100%. The kinase still bound, per cent of control ([31]; compound 1.0 µM) was 78%, the kinase still bound, per cent of control ([32]; compound 1.0 µM) was 82% and the kinase still bound, per cent of control ([33]; compound 1.0 µM) was 96%. It also gave a kinase still bound, per cent of control ([34]; compound 1.0 µM) of 95%, a kinase still bound, per cent of control ([35]; compound 1.0 µM) of 100% and a kinase still bound, per cent of control ([36]; compound 1.0 µM) of 13%. For the same molecule, the kinase still bound, per cent of control ([37]; compound 1.0 µM) was 86%, the kinase still bound, per cent of control ([38]; compound 1.0 µM) was 92% and the kinase still bound, per cent of control ([39]; compound 1.0 µM) was 100%. It also gave a kinase still bound, per cent of control ([40]; compound 1.0 µM) of 79%, a kinase still bound, per cent of control ([41]; compound 1.0 µM) of 71% and a kinase still bound, per cent of control ([42]; compound 1.0 µM) of 100%. The kinase still bound, per cent of control ([43]; compound 1.0 µM) was 96%.
